Laboratory results published in patent publication US10323038B2, “Pyrazole compounds and methods of making and using same” (ABIDE THERAPEUTICS, INC., priority 2015, dated 2019).

Experiments:
FAAH = FAAH (Mus musculus (Mouse), UniProt O08914); assay: In vitro competitive activity-based protein profiling, FAAH (mouse); format: biochemical; settings: for inhibition at 1 µM: read-out: FAAH % inh. 1 μM (mouse)
How it was run: (§1)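 Residual MAGL and FAAH activity came from in-gel fluorescence after competition between inhibitor (30 min preincubation, 37° C) and the activity-based probe FP-Rh or HT-01 (30 min, 37° C) in mouse or human tissue or cell proteomes.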

MAGL = MAGL (Mus musculus (Mouse), UniProt O35678); assay: In vitro competitive activity-based protein profiling, MAGL (mouse); format: biochemical; settings: for inhibition at 1 µM: read-out: MAGL % inh. 1 μM (mouse)
How it was run: as §1

Chain of FAAH (O08914 whole entry): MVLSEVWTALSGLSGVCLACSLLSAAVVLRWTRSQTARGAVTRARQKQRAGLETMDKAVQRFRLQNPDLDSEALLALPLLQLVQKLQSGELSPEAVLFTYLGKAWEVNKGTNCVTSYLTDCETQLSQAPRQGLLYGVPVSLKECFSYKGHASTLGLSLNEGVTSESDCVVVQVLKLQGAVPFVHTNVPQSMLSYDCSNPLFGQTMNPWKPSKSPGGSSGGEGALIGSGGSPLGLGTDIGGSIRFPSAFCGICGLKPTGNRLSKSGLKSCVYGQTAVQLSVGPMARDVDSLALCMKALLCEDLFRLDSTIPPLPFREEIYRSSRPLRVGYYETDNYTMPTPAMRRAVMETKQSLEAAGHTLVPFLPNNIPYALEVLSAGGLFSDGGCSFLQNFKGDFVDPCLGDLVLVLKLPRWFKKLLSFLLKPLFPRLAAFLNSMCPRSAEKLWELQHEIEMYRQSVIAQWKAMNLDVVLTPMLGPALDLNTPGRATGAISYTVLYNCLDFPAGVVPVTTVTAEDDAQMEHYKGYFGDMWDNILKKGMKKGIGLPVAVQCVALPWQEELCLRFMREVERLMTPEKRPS
Chain of MAGL (O35678 whole entry): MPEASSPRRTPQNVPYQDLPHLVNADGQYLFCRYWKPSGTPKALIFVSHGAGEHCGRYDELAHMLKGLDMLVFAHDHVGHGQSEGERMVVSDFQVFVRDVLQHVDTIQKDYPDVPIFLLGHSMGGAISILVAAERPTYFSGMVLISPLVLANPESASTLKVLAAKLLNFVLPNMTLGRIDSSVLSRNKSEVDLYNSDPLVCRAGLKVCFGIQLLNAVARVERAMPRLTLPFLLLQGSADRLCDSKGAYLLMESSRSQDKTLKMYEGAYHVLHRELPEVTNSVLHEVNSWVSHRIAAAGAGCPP

| IC50 (FAAH) [nM] | inhibition at 1 µM (FAAH) [%] | IC50 (MAGL) [nM] | inhibition at 1 µM (MAGL) [%] | SMILES |
| --- | --- | --- | --- | --- |
| ≤ 100 | ≥ 75 | 100 to 1000 | ≥ 75 | CC(=O)N(C)c1cnn(C(=O)N2CCC3(CCN(Cc4ccc(N5CCCC5)c(Cl)c4)C3)C2)c1 (stereo not shown) [Example 67, N-(1-(7-(3-chloro-4-(pyrrolidin-1-yl)benzyl)-2,7-diazaspiro[4.4]nonane-2-carbonyl)-1H-pyrazol-4-yl)-N-methylacetamide] |
| – | ≥ 75 | – | ≥ 75 | CC(=O)N(C)c1cnn(C(=O)N2CC3CN(Cc4ccc(N5CCOCC5)c(Cl)c4)CC3C2)c1 (stereo not shown) [Example 95, N-(1-(5-(3-chloro-4-morpholinobenzyl)octahydropyrrolo[3,4-c]pyrrole-2-carbonyl)-1H-pyrazol-4-yl)-N-methylacetamide] |
| – | ≥ 75 | – | ≥ 75 | CC(=O)N(C)c1cnn(C(=O)N2CC3CN(Cc4ccc(N5CCCC5)cc4Cl)CC3C2)c1 (stereo not shown) [Example 132, N-(1-(5-(2-chloro-4-(pyrrolidin-1-yl)benzyl)octahydropyrrolo[3,4-c]pyrrole-2-carbonyl)-1H-pyrazol-4-yl)-N-methylacetamide] |
| – | ≥ 75 | – | ≥ 75 | CC(=O)N(C)c1cnn(C(=O)N2CC3CN(Cc4cccc(OCc5ccc(Cl)cc5)c4)CC3C2)c1 (stereo not shown) [Example 249, N-(1-(5-(3-((4-chlorobenzyl)oxy)benzyl)octahydropyrrolo[3,4-c]pyrrole-2-carbonyl)-1H-pyrazol-4-yl)-N-methylacetamide] |
| ≤ 100 | ≥ 75 | ≤ 100 | ≥ 75 | CC(=O)N(C)c1cnn(C(=O)N2CC3CN(Cc4ccc(Cl)cc4Cl)CC3C2)c1 (stereo not shown) [Example 113, N-(1-(5-(2,4-dichlorobenzyl)octahydropyrrolo[3,4-c]pyrrole-2-carbonyl)-1H-pyrazol-4-yl)-N-methylacetamide] |
| ≤ 100 | ≥ 75 | ≤ 100 | ≥ 75 | CC(=O)N(C)c1cnn(C(=O)N2CC3CN(Cc4ccc(N5CCCC5)cc4C(F)(F)F)CC3C2)c1 (stereo not shown) [Example 93, N-methyl-N-(1-(5-(4-(pyrrolidin-1-yl)-2-(trifluoromethyl)benzyl)octahydropyrrolo[3,4-c]pyrrole-2-carbonyl)-1H-pyrazol-4-yl)acetamide] |
| ≤ 100 | ≥ 75 | ≤ 100 | ≥ 75 | CC(=O)N(C)c1cnn(C(=O)N2CC3CN(Cc4ccc(F)c(N5CCCC5)c4)CC3C2)c1 (stereo not shown) [Example 100, N-(1-(5-(4-fluoro-3-(pyrrolidin-1-yl)benzyl)octahydropyrrolo[3,4-c]pyrrole-2-carbonyl)-1H-pyrazol-4-yl)-N-methylacetamide] |
| ≤ 100 | ≥ 75 | ≤ 100 | ≥ 75 | CC(=O)N(C)c1cnn(C(=O)N2CC3CN(Cc4cc(Cl)cc(N5CCOCC5)c4)CC3C2)c1 (stereo not shown) [Example 125, N-(1-(5-(3-chloro-5-morpholinobenzyl)octahydropyrrolo[3,4-c]pyrrole-2-carbonyl)-1H-pyrazol-4-yl)-N-methylacetamide] |

More lines, now with the values behind:

| SMILES | IC50 (FAAH) [nM] | inhibition at 1 µM (FAAH) [%] | IC50 (MAGL) [nM] | inhibition at 1 µM (MAGL) [%] |
| --- | --- | --- | --- | --- |
| CC(=O)N(C)c1cnn(C(=O)N2CCN(Cc3ccc(C(F)(F)F)cc3N3C4CCC3COC4)CC2)c1 [Example 195, N-(1-(4-(2-(3-oxa-8-azabicyclo[3.2.1]octan-8-yl)-4-(trifluoromethyl)benzyl)piperazine-1-carbonyl)-1H-pyrazol-4-yl)-N-methylacetamide] | 1000 to 10000 | 0 to 25 | ≤ 100 | ≥ 75 |
| CC(=O)N(C)c1cnn(C(=O)N2CC3(CCN(Cc4ccccc4Cl)CC3)C2)c1 [Example 86, N-(1-(7-(2-chlorobenzyl)-2,7-diazaspiro[3.5]nonane-2-carbonyl)-1H-pyrazol-4-yl)-N-methylacetamide] | – | ≥ 75 | – | 50 to 75 |
| CC(=O)N(C)c1cnn(C(=O)N2CCC3(CC2)CN(Cc2ccc(CN4CCOCC4)cc2)C3)c1 [Example 233, N-methyl-N-(1-(2-(4-(morpholinomethyl)benzyl)-2,7-diazaspiro[3.5]nonane-7-carbonyl)-1H-pyrazol-4-yl)acetamide] | – | 0 to 25 | – | 50 to 75 |
| CC(=O)N(C)c1cnn(C(=O)N2CCC3(CC2)CN(Cc2ccccc2Cl)C3)c1 [Example 40, N-(1-(2-(2-chlorobenzyl)-2,7-diazaspiro[3.5]nonane-7-carbonyl)-1H-pyrazol-4-yl)-N-methylacetamide] | 100 to 1000 | ≥ 75 | ≤ 100 | ≥ 75 |
| CC(=O)N(C)c1cnn(C(=O)N2CCN(Cc3ccccc3C(F)(F)F)CC2)c1 [Example 214, N-methyl-N-(1-(4-(2-(trifluoromethyl)benzyl)piperazine-1-carbonyl)-1H-pyrazol-4-yl)acetamide] | ≤ 100 | ≥ 75 | ≤ 100 | ≥ 75 |
| CS(=O)(=O)Nc1cnn(C(=O)N2CCN(Cc3ccc(-c4cnccn4)cc3C(F)(F)F)CC2)c1 [Example 289, N-(1-(4-(4-(pyrazin-2-yl)-2-(trifluoromethyl)benzyl)piperazine-1-carbonyl)-1H-pyrazol-4-yl)methanesulfonamide] | – | ≥ 75 | – | 25 to 50 |
| CC(=O)N(C)c1cnn(C(=O)N2CC3CN(Cc4ccc(-c5ccccc5)cc4C)CC3C2)c1 (stereo not shown) [Example 223, N-methyl-N-(1-(5-((3-methyl-[1,1′-biphenyl]-4-yl)methyl)octahydropyrrolo[3,4-c]pyrrole-2-carbonyl)-1H-pyrazol-4-yl)acetamide] | ≤ 100 | ≥ 75 | ≤ 100 | ≥ 75 |
| CC(=O)N(C)c1cnn(C(=O)N2CCN(Cc3ccc(-c4ccccc4)cc3C)CC2)c1 [Example 201, N-methyl-N-(1-(4-((3-methylbiphenyl-4 yl)methyl)piperazine-1-carbonyl)-1H-pyrazol-4-yl)acetamide] | ≤ 100 | ≥ 75 | ≤ 100 | ≥ 75 |
| COc1ccccc1CN1CCN(C(=O)n2cc(N(C)C(C)=O)cn2)CC1 [Example 213, N-(1-(4-(2-methoxybenzyl)piperazine-1-carbonyl)-1H-pyrazol-4-yl)-N-methylacetamide] | – | 0 to 25 | – | ≥ 75 |
| CC(=O)N(C)c1cnn(C(=O)N2CC3(CCN(Cc4ccc(N5CCOCC5)cc4C)CC3)C2)c1 [Example 23, N-methyl-N-(1-(7-(2-methyl-4-morpholinobenzyl)-2,7-diazaspiro[3.5]nonane-2-carbonyl)-1H-pyrazol-4-yl)acetamide] | – | 25 to 50 | – | 25 to 50 |
| CC(=O)N(C)c1cnn(C(=O)N2CCC3(CCN(Cc4cc(Cl)ccc4Cl)C3)C2)c1 (single isomer, unassigned) [Example 177, N-(1-(7-(2,5-dichlorobenzyl)-2,7-diazaspiro[4.4]nonane-2-carbonyl)-1H-pyrazol-4-yl)-N-methylacetamide] | ≤ 100 | – | ≤ 100 | – |
| CC(=O)N(C)c1cnn(C(=O)N2CCN(Cc3ccc(C(F)(F)F)cc3)CC2)c1 [Example 198, N-methyl-N-(1-(4-(4-(trifluoromethyl)benzyl)piperazine-1-carbonyl)-1H-pyrazol-4-yl)acetamide] | 100 to 1000 | ≥ 75 | – | ≥ 75 |
